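Five concentrations, 48 hours, 96-well plates. The concentration for full growth arrest is given as TGI.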
Assays:
Test in all cases: NCI anticancer screen, dose series, 48 h
[1] = system: 786-0 renal
[2] = system: A498 renal
[3] = system: A549 NSCLC
[4] = system: ACHN renal
[5] = system: BT-549 breast
[6] = system: CAKI-1 renal
[7] = system: CCRF-CEM leukemia
[8] = system: COLO 205 colon
[9] = system: DU-145 prostate
[10] = system: EKVX NSCLC
[11] = system: HCC-2998 colon
[12] = system: HCT-116 colon
[13] = system: HCT-15 colon
[14] = system: HL-60(TB) leukemia
[15] = system: HOP-62 NSCLC
[16] = system: HOP-92 NSCLC
[17] = system: HS 578T breast
[18] = system: HT29 colon
[19] = system: IGROV1 ovarian
[20] = system: K-562 leukemia
[21] = system: KM12 colon
[22] = system: LOX IMVI melanoma
[23] = system: M14 melanoma
[24] = system: MALME-3M melanoma
[25] = system: MCF7 breast
[26] = system: MDA-MB-231 breast
[27] = system: MDA-MB-435
[28] = system: MDA-N
[29] = system: MOLT-4 leukemia
[30] = system: NCI-H226 lung
[31] = system: NCI-H23 lung
[32] = system: NCI-H460 lung
[33] = system: NCI-H522 lung
[34] = system: NCI/ADR-RES ovarian
[35] = system: OVCAR-3 ovarian
[36] = system: OVCAR-4 ovarian
[37] = system: OVCAR-5 ovarian
[38] = system: OVCAR-8 ovarian
[39] = system: PC-3 prostate
[40] = system: RPMI-8226 leukemia
[41] = system: RXF 393 renal
[42] = system: SF-268 CNS
[43] = system: SF-295 CNS
[44] = system: SF-539 CNS
[45] = system: SK-MEL-2 melanoma
[46] = system: SK-MEL-28 melanoma
[47] = system: SK-MEL-5 melanoma
[48] = system: SK-OV-3 ovarian
[49] = system: SN12C renal
[50] = system: SNB-19 CNS
[51] = system: SNB-75 CNS
[52] = system: SR leukemia
[53] = system: SW-620 colon
[54] = system: T-47D breast
[55] = system: TK-10 renal
[56] = system: U251 CNS
[57] = system: UACC-257 melanoma
[58] = system: UACC-62 melanoma
[59] = system: UO-31 renal

Measured: TGI

[N-]=[N+]=Nc1ccc2c(c1)Sc1ccccc1N2CCCCN1CCN(Cc2ccc(C(=O)c3ccccc3)cc2)CC1
> 29 µM: [2]
23.1 µM: [44]
5.37 µM: [41]
4.28 µM: [24]
4.41 µM: [57]
> 24.3 µM: [52]
> 65.4 µM: [6]
3.86 µM: [11]
3.55 µM: [8]
> 23.3 µM: [25]
11.7 µM: [16]
> 66.1 µM: [5]
6.86 µM: [45]
4.43 µM: [33]
> 96.2 µM: [55]
3.56 µM: [22]
3.57 µM: [46]
> 56.8 µM: [12]
22.7 µM: [54]
3.95 µM: [23]
> 27.9 µM: [59]
3.53 µM: [18]
4.09 µM: [47]
> 36.4 µM: [38]
33 µM: [26]
6.1 µM: [58]
> 80.8 µM: [31]
10.1 µM: [14]
> 100 µM: all other assays above

COC1=C(OC)C23CCc4ccc(OC)c(O)c4C2(CCN3)CC1=O (configuration not stated)
not listed: [59]
> 100 µM: all other assays above
